Data reported in patent publication US8507674B2, “Quorum sensing inhibitor” (The University of Tokyo, priority 2007, dated 2013).

What was measured:
Burkholderia glumae [1] = test: Test Example 1: production of QS signal molecules C6-HSL and C8-HSL (TLC, CV026 violacein detection); type: cell-based
Procedure: Burkholderia glumae was inoculated into an LB culture medium (produced by BD) (Difco LB Broth: containing tryptone (10.0 g), yeast extract (5.0 g), and sodium chloride (10.0 g)), and cultured at 37° C. overnight. The thus-cultured broth was subjected to bacterial collection using a centrifuge, washed with an LB culture medium twice using a fresh LB culture medium each time. […] Each of the broths was filtered by a membrane filter (0.22 μm). 0.5 mL of ethyl acetate was added to 0.5 mL of supernate from which bacteria were removed, and then the quorum sensing (QS) signal molecules were extracted using ethyl acetate. The thus-obtained ethyl acetate layer was concentrated under reduced pressure, and the residue was re-dissolved in 20 μL of methanol, producing a test liquid.
The test liquid (1 μL) was spotted on TLC to separate C6-HSL and C8-HSL, which are QS signal molecules, under the condition of developing solvent: methanol/water=70/30. After the development, a TLC plate was well dried and a culture solution containing QS signal molecule detection bacteria (Chromobacterium violaceum CV026 strain) that had been pre-cultured in an LB culture medium and agar was applied to the TLC plate, followed by the detection of C6-HSL and C8-HSL. Chromobacterium violaceum is known as a bacterium that produces purple pigment (violacein) using the QS; therefore, the CV026 strain can be used to detect QS signal molecules (Microbiology, (1997), 143, 3703-3711, (2004), 54(4), 921-934, (2007), 64(1), 165-179). After applying the detected bacteria to the TLC plate, the TLC plate was subjected to overnight cultivation at 28° C. and then detection using violacein. For quantitative determination, calibration curves showing the violacein production from C6-HSL and C8-HSL that had been chemically synthesized were obtained. From the calibration curves, the production amounts of the QS signal molecules of each compound were obtained.

Burkholderia glumae [2] = test: Test Example 3: number of microorganisms versus culturing time and concentration; type: cell-based; conditions: 80 μM or 100 μM, 20 to 40 hours culturing, FIG. 2
Procedure: Burkholderia glumae was inoculated into an LB culture medium, and cultured at 37° C. overnight. The thus-obtained culture solution was subjected to bacterial collection using a centrifuge, washed with an LB culture medium twice using a fresh LB culture medium each time. To the bacterial cell a fresh LB culture medium was added to prepare a culture suspension of about 3.0×10^5 cfu/mL. Thereafter, Compound (1) produced in Production Example 1 was added to the culture suspension in such a manner that its final concentration became a predetermined value (i.e., 0 μM, 80 μM, or 100 μM), followed by shake culturing for 40 hours. The number of microorganisms in the culture solution after a predetermined time (i.e., 20, 24, 28, 32, 36 and 40 hours) was obtained by the following procedure. Specifically, a portion of the culture solution was removed and diluted 1,000-fold, and then seeded to an LB culture medium agar plate. The number of colonies was counted to obtain the number of microorganisms.

Burkholderia glumae [3] = test: Test Example 4: amount of toxoflavin produced in culture solution; type: cell-based; conditions: 0, 20, 40, 60, 80 or 100 μM, shake culturing 20 hours, FIG. 3
Procedure: Burkholderia glumae was inoculated into an LB culture medium, and cultured at 37° C. overnight. The thus-obtained culture solution was subjected to bacterial collection using a centrifuge, and washed with an LB culture medium twice using a fresh LB culture medium each time. To the bacterial cell a fresh LB culture medium was added, and then Compound (1) produced in Production Example 1 was added thereto in such a manner that its final concentration became a predetermined value (i.e., 0, 20, 40, 60, 80 or 100 μM), followed by shake culturing for 20 hours. The amount of toxoflavin produced by the bacterial cell in the culture solution was obtained by the following procedure.
Each culture solution was filtered by 0.22-μm membrane filter, and 1 mL of the filtrate was isolated. One mL of chloroform was added to the filtrate, followed by extraction. The thus-obtained chloroform layer was concentrated under reduced pressure, and an 80% (V/V) an aqueous methanol solution was added to and dissolved in the residue. The absorbance (at 260 nm) of the solution was measured, and the toxin doses were calculated from the calibration curve, which was obtained using a chemically synthesized standard toxin.

Burkholderia glumae [4] = test: Test Example 5: onset of infection on rice, test liquid sprayed before infection; type: in vivo; conditions: for percentage of flower clusters with score 0: score 0 = less than 0.1% diseased; for percentage of flower clusters with score 0 / percentage of flower clusters with score 1 / percentage of flower clusters with score 2 / percentage of flower clusters with score 3 / percentage of flower clusters with score 4 / percentage of flower clusters with score 5: rice, 7 days; for percentage of flower clusters with score 1: score 1 = 0.1-20% diseased; for percentage of flower clusters with score 2: score 2 = 20-40% diseased; for percentage of flower clusters with score 3: score 3 = 40-60% diseased; for percentage of flower clusters with score 4: score 4 = 60-80% diseased; for percentage of flower clusters with score 5: score 5 = 80-100% diseased
Procedure: A dimethyl formamide solution (1,000 ppm) of Compound (1) was diluted with water to have a predetermined concentration (50, 100 or 200 μM) to prepare a test liquid. In a separate procedure, Burkholderia glumae were seeded to an LB culture medium and cultured overnight at 37° C., preparing a culture solution for infection.
Each test liquid (10 mL) was sprayed onto Korean rice (Milyang 23) raised in a hothouse until the flowering stage. The culture solution for infection was sprayed onto the rice one hour after the application of the test liquid. After cultivation for seven days, the onset of Burkholderia glumae infection on the rice was evaluated.
The evaluation was conducted by picking an ear from each plant, making a total of three ears. In each flower cluster (grain), the percentage of the portion that suffered from the onset of disease (i.e., the portion that turned brown) caused by the toxoflavin produced by Burkholderia glumae was visually observed and scored based on the scale shown below. The percentage of the total flower clusters was obtained and scored to indicate the onset of the disease.
The percentage that suffered from the onset of disease:
Not less than 0.1% and not greater than 20%: 1
Not less than 20% and not greater than 40%: 2
Not less than 40% and not greater than 60%: 3
Not less than 60% and not greater than 80%: 4
In this evaluation, three flower clusters (grains) having the same conditions were prepared, and reproducibility was confirmed by repeating the same evaluation three times. The same evaluation was also conducted as a comparative test except that water was used instead of the test liquid. Further, the same evaluation was conducted to serve as a blank except that water was used instead of both the test liquid and the culture solution for infection.

[5] = 40 μM compound, 12 hours shake culturing
[6] = 40 μM compound, 24 hours shake culturing
[7] = 60 μM compound, 12 hours shake culturing
[8] = 60 μM compound, 24 hours shake culturing
[9] = 50 μM sprayed 1 h before infection
[10] = 100 μM sprayed 1 h before infection
[11] = 200 μM sprayed 1 h before infection

Compound: CCCc1cc(=O)n2cccc(O)c2n1 [Compound (1), 2-n-propyl-9-hydroxy-4H-pyrid[1,2-a]pyrimidin-4-one]
- C6-HSL (Burkholderia glumae [1]; [5]): 163 ng/mL
- C8-HSL (Burkholderia glumae [1]; [5]): 14 µg/mL
- C6-HSL (Burkholderia glumae [1]; [6]): 0 ng/mL
- C8-HSL (Burkholderia glumae [1]; [6]): 0 µg/mL
- C6-HSL (Burkholderia glumae [1]; [7]): 167 ng/mL
- C8-HSL (Burkholderia glumae [1]; [7]): 13 µg/mL
- C6-HSL (Burkholderia glumae [1]; [8]): 0 ng/mL
- C8-HSL (Burkholderia glumae [1]; [8]): 0 µg/mL
- control effect against Burkholderia glumae (number of microorganisms) (Burkholderia glumae [2]): excellent control effect
- toxin doses produced by bacteria (toxoflavin) (Burkholderia glumae [3]): remarkably decreased
- percentage of flower clusters with score 0 (Burkholderia glumae [4]; [9]): 68%
- percentage of flower clusters with score 0 (Burkholderia glumae [4]; [10]): 80%
- percentage of flower clusters with score 0 (Burkholderia glumae [4]; [11]): 82%
- percentage of flower clusters with score 1 (Burkholderia glumae [4]; [9]): 7%
- percentage of flower clusters with score 1 (Burkholderia glumae [4]; [10]): 6%
- percentage of flower clusters with score 1 (Burkholderia glumae [4]; [11]): 6%
- percentage of flower clusters with score 2 (Burkholderia glumae [4]; [9]): 6%
- percentage of flower clusters with score 2 (Burkholderia glumae [4]; [10]): 4%
- percentage of flower clusters with score 2 (Burkholderia glumae [4]; [11]): 6%
- percentage of flower clusters with score 3 (Burkholderia glumae [4]; [9]): 7%
- percentage of flower clusters with score 3 (Burkholderia glumae [4]; [10]): 3%
- percentage of flower clusters with score 3 (Burkholderia glumae [4]; [11]): 2%
- percentage of flower clusters with score 4 (Burkholderia glumae [4]; [9]): 6%
- percentage of flower clusters with score 4 (Burkholderia glumae [4]; [10]): 3%
- percentage of flower clusters with score 4 (Burkholderia glumae [4]; [11]): 2%
- percentage of flower clusters with score 5 (Burkholderia glumae [4]; [9]): 6%
- percentage of flower clusters with score 5 (Burkholderia glumae [4]; [10]): 4%
- percentage of flower clusters with score 5 (Burkholderia glumae [4]; [11]): 2%
- onset of Burkholderia glumae on rice (Burkholderia glumae [4]; test liquid 50, 100 or 200 μM sprayed before the culture solution for infection): prevented
